Assay results: PMC7997574, “Lead Optimization of Benzoxazolone Carboxamides as Orally Bioavailable and CNS Penetrant Acid Ceramidase Inhibitors” (Journal of Medicinal Chemistry, 2020)

How the values were obtained:
[1] = In vitro plasma stability study; type: in vitro ADME; settings: mouse plasma; read-out: m-plasma t1/2
Outline: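 Compound at 2 μM final incubated in mouse plasma at 37 °C for up to 120 min, sampled at 0–120 min and quenched in cold MeCN with internal standard. Remaining compound quantified by LC/MS/MS; t1/2 fitted from response vs time; mean of ≥2 experiments.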

GCase = target: T1, GCase (Homo sapiens, UniProt P04062); experiment: In vitro hGCase assay; type: biochemical; settings: 1 and 10 μM
T1 construct: 5 nM purified human full-length GCase enzyme; made in house
T1 sequence (P04062 40-536): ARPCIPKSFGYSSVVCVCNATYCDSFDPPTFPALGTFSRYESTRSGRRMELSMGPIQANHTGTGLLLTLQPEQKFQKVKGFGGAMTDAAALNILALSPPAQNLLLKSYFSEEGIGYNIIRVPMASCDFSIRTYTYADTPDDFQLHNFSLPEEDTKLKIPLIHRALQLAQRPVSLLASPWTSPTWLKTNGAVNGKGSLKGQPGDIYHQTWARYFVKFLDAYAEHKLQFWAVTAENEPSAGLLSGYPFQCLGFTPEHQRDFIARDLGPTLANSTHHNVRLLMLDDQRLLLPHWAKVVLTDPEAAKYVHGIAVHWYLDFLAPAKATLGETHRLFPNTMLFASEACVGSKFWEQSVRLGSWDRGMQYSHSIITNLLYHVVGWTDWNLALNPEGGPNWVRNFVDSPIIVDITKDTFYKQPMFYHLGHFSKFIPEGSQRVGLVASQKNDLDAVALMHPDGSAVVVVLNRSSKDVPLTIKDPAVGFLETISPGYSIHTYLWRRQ
Procedure: hGCase activity measurement was conducted using the fluorogenic substrate 4-methylumbelliferyl-β-D-[…] hydrate (4-MUG, Merck) at 1 mM and 5 nM purified human full-length GCase enzyme and 50 nM of its natural activator SapC (both GCase and SapC were purified in house) in a buffer containing 50 mM citric acid, 174 mM K2HPO4, 15 μM phosphatidylserine, and 0.32 mM Triton X-100 at pH 4.7 in a final volume of 50 μL. The reaction mixtures were incubated for 15 min at rt and stopped by the addition of 150 μL of 1 M glycine at pH 12.5. The cleavage of 4-MUG was monitored by a plate reader at excitation/emission wavelengths of 365/440 nm. The average hGCase activity was calculated from two independent experiments, each performed in two technical replicates.

GalSph (d18:1) = experiment: Brain GalSph levels in Twitcher mice (Krabbe's disease model); type: in vivo, mouse; settings: for reduction of GalSph (d18:1) levels in the brains: Twitcher mice; for GalSph(d18:1) change (Figure 8): brain
Procedure: 4L;C* mice (C57BL/6 J/129SvEV) were randomly assigned to three treatment groups (N = 4–8 with mixed males and females) and dosed once a day i.p. with 90 or 30 mg kg^–1 of 22m or vehicle. Treatment started at 5 days of age for a duration of 14 days. The application volume was set to 10 μL per gram of body weight, and dosage was adjusted accordingly. Animals of all groups were sacrificed 1 h after the last dose, and the brain tissues and plasma were collected. The left brain containing cortex, cerebella, thalamus, and brainstem was analyzed for SphL levels by MS. Data were analyzed using the Student t test. The right brain containing cortex, cerebella, thalamus, and brainstem and plasma were analyzed for drug levels of 22m. All mice were housed under pathogen-free conditions in the animal facility, and animal experiment was performed according to the IACUC approved protocol (2018-0056) at Cincinnati Children’s Hospital Research Foundation. Wild Type (WT) (GALC+/+) and Twitcher (Twi) (GALC–/−) mice were genotyped by PCR as previously described.[58] Twi mice were randomly assigned to three treatment groups (N = 3 males + N = 3 females for each group) and dosed once a day i.p. with 90 or 30 mg kg^–122m or vehicle for a duration of 20 days. Treatment started at 10 days of age. The application volume was set to 10 μL per gram of body weight, and dosage was adjusted accordingly. Two groups (N = 3 males + N = 3 females for each group) of WT controls treated with vehicle or high dose (90 mg kg^–1) of 22m were also included in the study. Animals of all groups were sacrificed 1 h after the last dose, and the brain tissues and plasma were collected. The left brain containing cortex, cerebella, thalamus, and brainstem was analyzed for SphL levels by MS. Data were analyzed using the Student t test. The right brain containing cortex, cerebella, thalamus, and brainstem and plasma were analyzed for drug levels of 22m. All animal work in this study was performed in accordance with approved animal protocols from the Animal Care and Use Committee at the University of Illinois at Chicago.

[2] = In vitro mouse brain tissue protein binding (equilibrium dialysis); type: in vitro ADME
Procedure: Studies were performed by the DMPK Group at Shanghai ChemPartner Co., Ltd., using the equilibrium dialysis method. Values are the mean of two technical replicates.

In the case of `CC(C)CNC(=O)n1c(=O)oc2cc(C3CCN(C)CC3)ccc21` [22m, N-Isobutyl-6-(1-methyl-4-piperidyl)-2-oxo-1,3-benzoxazole-3-carboxamide], the half-life at 2 µM [1] was 1.33 h, the half-life at 2 μM [1] was over 1 h and the “effect on activity of GCase” value (GCase) was “no effect”. For the same compound, the “reduction of GalSph (d18:1) levels in the brains” value (GalSph (d18:1); 30 mg kg^–1 i.p. once daily for 20 days) was 41%, the “reduction of GalSph (d18:1) levels in the brains” value (GalSph (d18:1); 90 mg kg^–1 i.p. once daily for 20 days) was 72% and the “GalSph(d18:1) change (Figure 8)” value (GalSph (d18:1); Twi 30 mg/kg i.p.) was -41%. For the same compound, the “GalSph(d18:1) change (Figure 8)” value (GalSph (d18:1); Twi 90 mg/kg i.p.) was -72% and the “Fb, u (%) brain fraction unbounded” value [2] was 0.70%.
